{"source": "patent US20060069132A1", "about": "“Azolecarboxamide herbicides” (priority 2004, published 2006)", "key": {"[1]": {"test_system": "bermudagrass", "experiment": "Test C pre-/postemergence herbicide test", "format": "in vivo, Cynodon dactylon", "method_in_brief": "(§1)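 Greenhouse-grown plants were evaluated visually 12 to 14 days after treatment, with 100 meaning complete control and 0 no effect. Application was preemergence, or postemergence at 2 to 18 cm.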"}, "[2]": {"test_system": "soybean", "experiment": "Test C pre-/postemergence herbicide test", "format": "in vivo, Glycine max", "conditions": "for Plant response rating (0 = no effect, 100 = complete control), Soybean: 125 g ai/ha", "method_in_brief": "as §1"}, "[3]": {"test_system": "velvetleaf", "experiment": "Test B pre-/postemergence herbicide test", "format": "in vivo, Abutilon theophrasti", "conditions": "for Plant response rating (0 to 100 scale), Velvetleaf: 0 is no effect", "method_in_brief": "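Herbicidal effect was judged by eye on a 0–100 scale after plants stood 13 to 15 days in the greenhouse following pre- or postemergence treatment with surfactant-containing formulations.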"}, "[4]": {"test_system": "eastern black nightshade", "experiment": "Test C pre-/postemergence herbicide test", "format": "in vivo, Solanum ptycanthum", "method_in_brief": "as §1"}, "[5]": {"test_system": "johnsongrass", "experiment": "Test C pre-/postemergence herbicide test", "format": "in vivo, Sorghum halepense", "method_in_brief": "as §1"}, "[6]": {"test_system": "cocklebur", "experiment": "Test C pre-/postemergence herbicide test", "format": "in vivo, Xanthium strumarium", "method_in_brief": "as §1"}, "[7]": {"conditions": "62 g ai/ha, preemergence, scale 0 to 100, 0 no effect, 100 complete control"}, "[8]": {"conditions": "125 g ai/ha, scale 0 (no effect) to 100 (complete control), visual, 12 to 14 days, preemergence"}, "[9]": {"conditions": "250 g ai/ha, scale 0-100, preemergence"}, "[10]": {"conditions": "Preemergence, 500 g ai/ha, scale 0 to 100, 0 no effect, 100 complete control"}, "[11]": {"conditions": "62 g ai/ha, preemergence, scale 0 to 100"}, "[12]": {"conditions": "500 g ai/ha, scale 0 to 100 (0 no effect, 100 complete control), visual, 12 to 14 days, preemergence"}, "[13]": {"conditions": "125 g ai/ha, visual rating, scale 0 (no effect) to 100 (complete control), postemergence"}, "[14]": {"conditions": "125 g ai/ha, 100 is complete control, preemergence"}}}
{"smiles": "CCN(C)C(=O)c1ccc(F)c(NC(=O)C2CC(C(C)(C)C)=NN2CC)c1", "note": "(racemic) [Compound 307]", "values": [{"measurement": "Plant response rating, Bermudagrass", "setting": "[1]; [7]", "value": 90}, {"measurement": "Plant response rating, Bermudagrass", "setting": "[1]; [8]", "value": 100}, {"measurement": "Plant response rating, Bermudagrass", "setting": "[1]; [9]", "value": 100}, {"measurement": "Bermudagrass plant response rating", "setting": "[1]; [10]", "value": 100}, {"measurement": "Plant response rating, Soybean", "setting": "[2]; [11]", "value": 40}, {"measurement": "Plant response rating, Soybean", "setting": "[2]; [9]", "value": 80}, {"measurement": "Plant response rating, Soybean", "setting": "[2]; [12]", "value": 100}, {"measurement": "Velvetleaf plant response rating", "setting": "[3]; [13]", "value": 10}, {"measurement": "Plant response rating, Velvetleaf", "setting": "[3]; 500 g ai/ha, visual rating, 0 = no effect, 100 = complete control, preemergence", "value": 100}, {"measurement": "Velvetleaf plant response rating", "setting": "[3]; postemergence, 500 g ai/ha, scale 0 to 100, 0 is no effect, 100 is complete control", "value": 60}, {"measurement": "Plant response rating, Nightshade", "setting": "[4]; [11]", "value": 100}, {"measurement": "Plant response rating, Nightshade", "setting": "[4]; [8]", "value": 100}, {"measurement": "Plant response rating, Nightshade", "setting": "[4]; [9]", "value": 100}, {"measurement": "Plant response rating, Nightshade", "setting": "[4]; [12]", "value": 100}, {"measurement": "Plant response rating, Johnsongrass", "setting": "[5]; [11]", "value": 60}, {"measurement": "Plant response rating, Johnsongrass", "setting": "[5]; [8]", "value": 80}, {"measurement": "Plant response rating, Johnsongrass", "setting": "[5]; [9]", "value": 90}, {"measurement": "Plant response rating, Johnsongrass", "setting": "[5]; [12]", "value": 100}, {"measurement": "Plant response rating, Cocklebur", "setting": "[6]; [11]", "value": 0}, {"measurement": "Plant response rating, Cocklebur", "setting": "[6]; [8]", "value": 30}, {"measurement": "Plant response rating, Cocklebur", "setting": "[6]; [9]", "value": 35}, {"measurement": "Cocklebur plant response rating", "setting": "[6]; [10]", "value": 75}]}
{"smiles": "CCn1nc2c(c1C(=O)Nc1cc(C(=O)N(C)C)ccc1F)CCC2(C)C", "note": "[Compound 352, N-[5-[(dimethylamino)carbonyl]-2-fluorophenyl]-2-ethyl-2,4,5,6-tetrahydro-6,6-dimethyl-3-cyclopentapyrazolecarboxamide]", "values": [{"measurement": "Plant response rating (0 = no effect, 100 = complete control), Bermudagrass", "setting": "[1]; 125 g ai/ha, preemergence", "value": 100}, {"measurement": "pest or weed control at 62 g/ha", "setting": "[1]; Cynodon dactylon, pre-emergence, 312 h, 62 g ai/ha, preemergence, scale 0 to 100, 0 no effect, 100 complete control, read-out: Plant response rating, Bermudagrass", "value": 95, "unit": "%"}, {"measurement": "pest or weed control at 250 g/ha", "setting": "[1]; Cynodon dactylon, pre-emergence, 312 h, 250 g ai/ha, scale 0-100, read-out: Plant response rating, Bermudagrass", "value": 100, "unit": "%"}, {"measurement": "pest or weed control at 500 g/ha", "setting": "[1]; Cynodon dactylon, pre-emergence, 312 h, 500 g ai/ha, scale 0 to 100 (0 no effect, 100 complete control), visual, 12 to 14 days, read-out: Plant response rating, Bermudagrass", "value": 100, "unit": "%"}, {"measurement": "Plant response rating (0 = no effect, 100 = complete control), Soybean", "setting": "[2]; preemergence", "value": 15}, {"measurement": "plant injury at 62 g/ha", "setting": "[2]; Glycine max, pre-emergence, 62 g ai/ha, preemergence, scale 0 to 100, read-out: Plant response rating, Soybean", "value": 0, "unit": "%"}, {"measurement": "plant injury at 250 g/ha", "setting": "[2]; Glycine max, pre-emergence, 250 g ai/ha, scale 0-100, read-out: Plant response rating, Soybean", "value": 50, "unit": "%"}, {"measurement": "plant injury at 500 g/ha", "setting": "[2]; Glycine max, pre-emergence, 500 g ai/ha, scale 0 to 100 (0 no effect, 100 complete control), visual, 12 to 14 days, read-out: Plant response rating, Soybean", "value": 70, "unit": "%"}, {"measurement": "Plant response rating (0 to 100 scale), Velvetleaf", "setting": "[3]; [14]", "value": 30}, {"measurement": "pest or weed control at 125 g/ha", "setting": "[3]; Abutilon theophrasti, post-emergence, 336 h, 125 g ai/ha, visual rating, scale 0 (no effect) to 100 (complete control), read-out: Velvetleaf plant response rating", "value": 10, "unit": "%"}, {"measurement": "pest or weed control at 500 g/ha", "setting": "[3]; Abutilon theophrasti, post-emergence, 336 h, postemergence, 500 g ai/ha, scale 0 to 100, 0 is no effect, 100 is complete control, read-out: Velvetleaf plant response rating", "value": 60, "unit": "%"}, {"measurement": "Plant response rating (0 = no effect, 100 = complete control), Nightshade", "setting": "[4]; 125 g ai/ha, preemergence", "value": 0}, {"measurement": "pest or weed control at 62 g/ha", "setting": "[4]; pre-emergence, 62 g ai/ha, preemergence, scale 0 to 100, read-out: Plant response rating, Nightshade", "value": 0, "unit": "%"}, {"measurement": "pest or weed control at 250 g/ha", "setting": "[4]; pre-emergence, 250 g ai/ha, scale 0-100, read-out: Plant response rating, Nightshade", "value": 50, "unit": "%"}, {"measurement": "pest or weed control at 500 g/ha", "setting": "[4]; pre-emergence, 500 g ai/ha, scale 0 to 100 (0 no effect, 100 complete control), visual, 12 to 14 days, read-out: Plant response rating, Nightshade", "value": 100, "unit": "%"}, {"measurement": "Plant response rating (0 = no effect, 100 = complete control), Johnsongrass", "setting": "[5]; 125 g ai/ha, preemergence", "value": 90}, {"measurement": "pest or weed control at 62 g/ha", "setting": "[5]; Sorghum halepense, pre-emergence, 62 g ai/ha, preemergence, scale 0 to 100, read-out: Plant response rating, Johnsongrass", "value": 50, "unit": "%"}, {"measurement": "pest or weed control at 250 g/ha", "setting": "[5]; Sorghum halepense, pre-emergence, 250 g ai/ha, scale 0-100, read-out: Plant response rating, Johnsongrass", "value": 90, "unit": "%"}, {"measurement": "pest or weed control at 500 g/ha", "setting": "[5]; Sorghum halepense, pre-emergence, 500 g ai/ha, scale 0 to 100 (0 no effect, 100 complete control), visual, 12 to 14 days, read-out: Plant response rating, Johnsongrass", "value": 100, "unit": "%"}, {"measurement": "Plant response rating (0 = no effect, 100 = complete control), Cocklebur", "setting": "[6]; 125 g ai/ha, preemergence", "value": 0}, {"measurement": "pest or weed control at 62 g/ha", "setting": "[6]; Xanthium strumarium, pre-emergence, 312 h, 62 g ai/ha, preemergence, scale 0 to 100, read-out: Plant response rating, Cocklebur", "value": 0, "unit": "%"}, {"measurement": "pest or weed control at 250 g/ha", "setting": "[6]; Xanthium strumarium, pre-emergence, 312 h, 250 g ai/ha, scale 0-100, read-out: Plant response rating, Cocklebur", "value": 0, "unit": "%"}, {"measurement": "pest or weed control at 500 g/ha", "setting": "[6]; Xanthium strumarium, pre-emergence, 312 h, 500 g ai/ha, scale 0 to 100 (0 no effect, 100 complete control), visual, 12 to 14 days, read-out: Plant response rating, Cocklebur", "value": 30, "unit": "%"}]}
{"smiles": "CCc1nn(C(C)(C)C)nc1C(=O)Nc1cccc(C(=S)N(C)C)c1", "note": "[Compound 395]", "values": [{"measurement": "Plant response rating, Bermudagrass", "setting": "[1]; [7]", "value": 95}, {"measurement": "Plant response rating (0 = no effect, 100 = complete control), Bermudagrass", "setting": "[1]; 125 g ai/ha, preemergence", "value": 100}, {"measurement": "Plant response rating, Bermudagrass", "setting": "[1]; [9]", "value": 100}, {"measurement": "Plant response rating, Bermudagrass", "setting": "[1]; [12]", "value": 100}, {"measurement": "Plant response rating, Soybean", "setting": "[2]; [11]", "value": 75}, {"measurement": "Plant response rating (0 = no effect, 100 = complete control), Soybean", "setting": "[2]; preemergence", "value": 85}, {"measurement": "Plant response rating, Soybean", "setting": "[2]; [9]", "value": 100}, {"measurement": "Plant response rating, Soybean", "setting": "[2]; [12]", "value": 100}, {"measurement": "Plant response rating (0 to 100 scale), Velvetleaf", "setting": "[3]; [14]", "value": 80}, {"measurement": "Velvetleaf plant response rating", "setting": "[3]; [13]", "value": 30}, {"measurement": "Velvetleaf plant response rating", "setting": "[3]; Postemergence, 500 g ai/ha, scale 0 (no effect) to 100 (complete control)", "value": 60}, {"measurement": "Plant response rating, Nightshade", "setting": "[4]; [11]", "value": 100}, {"measurement": "Plant response rating (0 = no effect, 100 = complete control), Nightshade", "setting": "[4]; 125 g ai/ha, preemergence", "value": 100}, {"measurement": "Plant response rating, Nightshade", "setting": "[4]; [9]", "value": 100}, {"measurement": "Plant response rating, Nightshade", "setting": "[4]; [12]", "value": 100}, {"measurement": "Plant response rating, Johnsongrass", "setting": "[5]; [11]", "value": 95}, {"measurement": "Plant response rating (0 = no effect, 100 = complete control), Johnsongrass", "setting": "[5]; 125 g ai/ha, preemergence", "value": 100}, {"measurement": "Plant response rating, Johnsongrass", "setting": "[5]; [9]", "value": 100}, {"measurement": "Plant response rating, Johnsongrass", "setting": "[5]; [12]", "value": 100}, {"measurement": "Plant response rating, Cocklebur", "setting": "[6]; [11]", "value": 0}, {"measurement": "Plant response rating (0 = no effect, 100 = complete control), Cocklebur", "setting": "[6]; 125 g ai/ha, preemergence", "value": 15}, {"measurement": "Plant response rating, Cocklebur", "setting": "[6]; [9]", "value": 80}, {"measurement": "Plant response rating, Cocklebur", "setting": "[6]; [12]", "value": 85}]}
